{"source": "the supplement of paper PMC11208160", "data": [{"test": "recombinant UMI read abundance after kanamycin selection (control-corrected) (log10(CPM+1)); higher = more efficient recombination; extreme values may be limits of the assay; sequences stand for … in AGTGCAGAGAAAATCGGCCAGTTTTCTCTGCCTGCAGTCCGCATGCCGTGGGACCCCTTGGGTTCTAACCTGTTGCCTAGATTTATGCAGCGGACTGCCTTTCTCCCAAAGTGATAAACCGG…AGGTTGGTTTCACT; site = the 11-nt donor", "summary_of_the_method": "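In a pooled Escherichia coli screen for the IS621 bridge recombinase, donor and donor-binding-loop pairs were each placed with a 12-nt UMI on a plasmid bearing a promoterless kanamycin gene. This library was co-electroporated with a target plasmid encoding a fixed target and T7-inducible recombinase, and cells were plated either on IPTG (0.07 mM) plus kanamycin or without selection, in two replicates each. Recombinant UMIs were PCR-amplified across the donor–target junction and sequenced, and counts were converted to CPM, averaged over replicates, scaled by control-derived factors and reported as log10(CPM+1).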", "values": [{"sequence": "TAACATTCATGGACCGGTTTTCCCGGTAATCCGTATTTGGG (site TAACATTCTCC)", "recombinant UMI read abundance (log10)": 0.809}, {"sequence": "TAACCGGCATGGACCGGTTTTCCCGGTAATCCGTATTTGGT (site TAACCGGCTAC)", "recombinant UMI read abundance (log10)": 0.35}, {"sequence": "TAACGAACATGGACCGGTTTTCCCGGTAATCCGTATTTGAC (site TAACGAACTGT)", "recombinant UMI read abundance (log10)": 2.86}, {"sequence": "TAACGGCCATGGACCGGTTTTCCCGGTAATCCGTATTTGAA (site TAACGGCCTTT)", "recombinant UMI read abundance (log10)": 0.00367}, {"sequence": "TAACTACCATGGACCGGTTTTCCCGGTAATCCGTATTTGTT (site TAACTACCTAA)", "recombinant UMI read abundance (log10)": 0.00587}, {"sequence": "TAACTAGCATGGACCGGTTTTCCCGGTAATCCGTATTTGAA (site TAACTAGCTTT)", "recombinant UMI read abundance (log10)": 1.57}, {"sequence": "TAACTAGCATGGACCGGTTTTCCCGGTAATCCGTATTTGAA (site TACCTAGCTTT)", "recombinant UMI read abundance (log10)": 0.34}, {"sequence": "TAACTAGCATGGACCGGTTTTCCCGGTAATCCGTATTTGAA (site TAGCTAGCTTT)", "recombinant UMI read abundance (log10)": 0.00713}, {"sequence": "TAACTAGCATGGACCGGTTTTCCCGGTAATCCGTATTTGAA (site TATCTAGCTTT)", "recombinant UMI read abundance (log10)": 0}, {"sequence": "TAACTTACATGGACCGGTTTTCCCGGTAATCCGTATTTGAT (site TAACTTACTAT)", "recombinant UMI read abundance (log10)": 0.731}, {"sequence": "TAAGATTCATGGACCGGTTTTCCCGGTAATCCGTATTTGTT (site AAAGATTCTAA)", "recombinant UMI read abundance (log10)": 0}, {"sequence": "TAAGATTCATGGACCGGTTTTCCCGGTAATCCGTATTTGTT (site CAAGATTCTAA)", "recombinant UMI read abundance (log10)": 1.43}, {"sequence": "TAAGATTCATGGACCGGTTTTCCCGGTAATCCGTATTTGTT (site GAAGATTCTAA)", "recombinant UMI read abundance (log10)": 0}, {"sequence": "TAAGATTCATGGACCGGTTTTCCCGGTAATCCGTATTTGTT (site TAAGATTCTAA)", "recombinant UMI read abundance (log10)": 2.02}, {"sequence": "TAAGCAGCATGGACCGGTTTTCCCGGTAATCCGTATTTGGC (site TAAGCAGCTGC)", "recombinant UMI read abundance (log10)": 2.92}, {"sequence": "TAAGCTGCATGGACCGGTTTTCCCGGTAATCCGTATTTGTG (site TAAGCTGCTCA)", "recombinant UMI read abundance (log10)": 0.65}, {"sequence": "TAAGCTGCATGGACCGGTTTTCCCGGTAATCCGTATTTGTG (site TCAGCTGCTCA)", "recombinant UMI read abundance (log10)": 0.00238}, {"sequence": "TAAGCTGCATGGACCGGTTTTCCCGGTAATCCGTATTTGTG (site TGAGCTGCTCA)", "recombinant UMI read abundance (log10)": 0.0127}, {"sequence": "TAAGCTGCATGGACCGGTTTTCCCGGTAATCCGTATTTGTG (site TTAGCTGCTCA)", "recombinant UMI read abundance (log10)": 0.00901}, {"sequence": "TAAGGGCCATGGACCGGTTTTCCCGGTAATCCGTATTTGAG (site TAAGGGCCTCT)", "recombinant UMI read abundance (log10)": 0.221}, {"sequence": "TAAGTATCATGGACCGGTTTTCCCGGTAATCCGTATTTGAC (site CTAGTATCTGT)", "recombinant UMI read abundance (log10)": 1.88}, {"sequence": "TAAGTATCATGGACCGGTTTTCCCGGTAATCCGTATTTGAC (site TAAGTATCTGT)", "recombinant UMI read abundance (log10)": 3.03}, {"sequence": "TAATCTACATGGACCGGTTTTCCCGGTAATCCGTATTTGAG (site TAATCTACTCT)", "recombinant UMI read abundance (log10)": 0.521}, {"sequence": "TAATGAACATGGACCGGTTTTCCCGGTAATCCGTATTTGGG (site TAATGAACTCC)", "recombinant UMI read abundance (log10)": 0.00333}, {"sequence": "TAATGAACATGGACCGGTTTTCCCGGTAATCCGTATTTGGG (site TAATGACCTCC)", "recombinant UMI read abundance (log10)": 0.0112}, {"sequence": "TAATGAACATGGACCGGTTTTCCCGGTAATCCGTATTTGGG (site TAATGAGCTCC)", "recombinant UMI read abundance (log10)": 0.0277}, {"sequence": "TAATGAACATGGACCGGTTTTCCCGGTAATCCGTATTTGGG (site TAATGATCTCC)", "recombinant UMI read abundance (log10)": 0.399}, {"sequence": "TAATGAGCATGGACCGGTTTTCCCGGTAATCCGTATTTGGA (site TAATGAGCTAC)", "recombinant UMI read abundance (log10)": 0.0122}, {"sequence": "TAATGAGCATGGACCGGTTTTCCCGGTAATCCGTATTTGGA (site TAATGAGCTCC)", "recombinant UMI read abundance (log10)": 0.0122}, {"sequence": "TAATGAGCATGGACCGGTTTTCCCGGTAATCCGTATTTGGA (site TAATGAGCTGC)", "recombinant UMI read abundance (log10)": 0}, {"sequence": "TAATGAGCATGGACCGGTTTTCCCGGTAATCCGTATTTGGA (site TAATGAGCTTC)", "recombinant UMI read abundance (log10)": 0.729}, {"sequence": "TAATGCGCATGGACCGGTTTTCCCGGTAATCCGTATTTGGG (site TAATGAGCTCC)", "recombinant UMI read abundance (log10)": 0.0175}]}]}
